# Data published in ChEMBL document CHEMBL4340534 (Bioorg Med Chem Lett, 2019).
# Activity calls are given as the source filed them. The rule behind the calls is not given here.
# Tests used:
# Pseudomonas aeruginosa = test: Antibacterial activity against Pseudomonas aeruginosa; format: functional
# [1] = Cytotoxicity against mouse L5178Y cells (TK +/-) assessed as reduction in cell viability incubated for 72 hrs by Cell Titer-Glo assay
# [2] = Inhibition of Escherichia coli DNA topoisomerase 4 using interlinked kDNA as substrate after 30 mins by ethidium bromide staining-based agarose gel electrophoresis method
# Escherichia coli [3] = test: Antibacterial activity against Escherichia coli 7623; format: functional
# [4] = biological target: DNA gyrase (Klebsiella pneumoniae) (UniProt W1DID1+A0A080SQT2); test: Inhibition of Klebsiella pneumoniae DNA gyrase assessed as increase in single and double strand DNA cleavage products; format: protein-complex assay
# Klebsiella pneumoniae = test: Antibacterial activity against Klebsiella pneumoniae 1161486; format: functional
# Escherichia coli [5] = test: Antibacterial activity against tolC deficient Escherichia coli Top10; format: functional
# [6] = biological target: Sodium channel protein type 5 subunit alpha (Homo sapiens, UniProt Q14524); test: Inhibition of human NaV1.5 expressed in HEK293 cells assessed as decrease in sodium current amplitude at -120 mV holding potential by Qpatch assay; format: ADME, cell-based
# Sequence of Sodium channel protein type 5 subunit alpha (Q14524 whole entry): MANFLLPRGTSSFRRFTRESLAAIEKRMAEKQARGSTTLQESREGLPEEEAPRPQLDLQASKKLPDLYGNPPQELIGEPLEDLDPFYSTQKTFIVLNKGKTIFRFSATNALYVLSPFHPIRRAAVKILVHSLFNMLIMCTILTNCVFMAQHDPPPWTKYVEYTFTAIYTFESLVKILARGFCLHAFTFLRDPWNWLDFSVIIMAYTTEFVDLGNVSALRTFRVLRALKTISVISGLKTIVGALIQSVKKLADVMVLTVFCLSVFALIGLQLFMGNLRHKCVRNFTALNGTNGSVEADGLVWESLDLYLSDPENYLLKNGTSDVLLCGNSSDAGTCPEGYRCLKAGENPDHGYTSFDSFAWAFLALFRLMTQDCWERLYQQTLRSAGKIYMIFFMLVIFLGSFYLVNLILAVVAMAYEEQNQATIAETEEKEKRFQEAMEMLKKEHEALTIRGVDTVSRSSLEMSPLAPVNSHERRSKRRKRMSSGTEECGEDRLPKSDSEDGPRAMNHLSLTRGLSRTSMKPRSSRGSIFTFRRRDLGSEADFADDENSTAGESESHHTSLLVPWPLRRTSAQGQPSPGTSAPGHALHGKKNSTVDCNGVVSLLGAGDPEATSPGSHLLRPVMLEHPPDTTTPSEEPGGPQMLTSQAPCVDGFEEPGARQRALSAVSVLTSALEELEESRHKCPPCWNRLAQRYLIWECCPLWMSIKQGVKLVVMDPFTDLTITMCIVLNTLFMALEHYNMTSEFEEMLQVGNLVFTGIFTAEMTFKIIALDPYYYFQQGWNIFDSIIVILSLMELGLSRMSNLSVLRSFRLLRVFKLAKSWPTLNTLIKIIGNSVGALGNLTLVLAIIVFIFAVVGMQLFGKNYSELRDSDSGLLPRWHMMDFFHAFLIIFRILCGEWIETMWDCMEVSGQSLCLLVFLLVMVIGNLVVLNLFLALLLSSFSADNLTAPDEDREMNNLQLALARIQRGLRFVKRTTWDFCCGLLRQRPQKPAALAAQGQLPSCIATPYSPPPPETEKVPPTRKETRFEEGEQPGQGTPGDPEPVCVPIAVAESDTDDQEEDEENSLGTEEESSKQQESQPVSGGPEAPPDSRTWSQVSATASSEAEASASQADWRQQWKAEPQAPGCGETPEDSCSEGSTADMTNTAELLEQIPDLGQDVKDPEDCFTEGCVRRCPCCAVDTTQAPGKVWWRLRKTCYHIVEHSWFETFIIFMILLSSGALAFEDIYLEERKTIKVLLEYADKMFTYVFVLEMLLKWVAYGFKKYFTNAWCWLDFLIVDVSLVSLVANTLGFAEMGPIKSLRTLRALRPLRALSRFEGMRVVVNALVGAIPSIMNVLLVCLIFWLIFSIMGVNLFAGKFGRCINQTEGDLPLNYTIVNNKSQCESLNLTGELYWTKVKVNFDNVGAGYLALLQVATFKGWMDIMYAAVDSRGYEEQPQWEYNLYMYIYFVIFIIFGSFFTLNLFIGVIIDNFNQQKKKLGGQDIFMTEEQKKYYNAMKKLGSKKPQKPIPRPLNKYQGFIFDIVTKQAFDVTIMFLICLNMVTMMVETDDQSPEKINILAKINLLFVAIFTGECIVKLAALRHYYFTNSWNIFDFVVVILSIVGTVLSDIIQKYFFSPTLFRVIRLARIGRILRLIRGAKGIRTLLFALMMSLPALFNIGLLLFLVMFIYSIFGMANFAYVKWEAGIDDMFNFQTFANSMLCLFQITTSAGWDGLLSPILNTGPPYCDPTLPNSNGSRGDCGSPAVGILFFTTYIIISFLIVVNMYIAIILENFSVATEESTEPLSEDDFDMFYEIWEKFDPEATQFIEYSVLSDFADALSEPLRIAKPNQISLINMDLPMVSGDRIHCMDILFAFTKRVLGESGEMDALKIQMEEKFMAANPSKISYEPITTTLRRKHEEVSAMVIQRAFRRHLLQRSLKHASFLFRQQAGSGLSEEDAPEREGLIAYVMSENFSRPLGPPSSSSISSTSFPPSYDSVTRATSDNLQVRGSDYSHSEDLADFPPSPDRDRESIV
# Escherichia coli [7] = test: Inhibition of Escherichia coli DNA topoisomerase 4 assessed as induction of enzyme-mediated DNA cleavage breaks
# Acinetobacter baumannii = test: Antibacterial activity against Acinetobacter baumannii BM4454; format: functional
# Escherichia coli [8] = test: Antibacterial activity against tolC deficient Escherichia coli Top10 harboring GyrB E793K mutant; format: functional
# [9] = biological target: DNA topoisomerase 2-alpha (Homo sapiens, UniProt P11388); test: Inhibition of human DNA topoisomerase 2 alpha using interlinked kDNA as substrate after 30 mins by ethidium bromide staining-based agarose gel electrophoresis method
# Sequence of DNA topoisomerase 2-alpha (P11388 whole entry): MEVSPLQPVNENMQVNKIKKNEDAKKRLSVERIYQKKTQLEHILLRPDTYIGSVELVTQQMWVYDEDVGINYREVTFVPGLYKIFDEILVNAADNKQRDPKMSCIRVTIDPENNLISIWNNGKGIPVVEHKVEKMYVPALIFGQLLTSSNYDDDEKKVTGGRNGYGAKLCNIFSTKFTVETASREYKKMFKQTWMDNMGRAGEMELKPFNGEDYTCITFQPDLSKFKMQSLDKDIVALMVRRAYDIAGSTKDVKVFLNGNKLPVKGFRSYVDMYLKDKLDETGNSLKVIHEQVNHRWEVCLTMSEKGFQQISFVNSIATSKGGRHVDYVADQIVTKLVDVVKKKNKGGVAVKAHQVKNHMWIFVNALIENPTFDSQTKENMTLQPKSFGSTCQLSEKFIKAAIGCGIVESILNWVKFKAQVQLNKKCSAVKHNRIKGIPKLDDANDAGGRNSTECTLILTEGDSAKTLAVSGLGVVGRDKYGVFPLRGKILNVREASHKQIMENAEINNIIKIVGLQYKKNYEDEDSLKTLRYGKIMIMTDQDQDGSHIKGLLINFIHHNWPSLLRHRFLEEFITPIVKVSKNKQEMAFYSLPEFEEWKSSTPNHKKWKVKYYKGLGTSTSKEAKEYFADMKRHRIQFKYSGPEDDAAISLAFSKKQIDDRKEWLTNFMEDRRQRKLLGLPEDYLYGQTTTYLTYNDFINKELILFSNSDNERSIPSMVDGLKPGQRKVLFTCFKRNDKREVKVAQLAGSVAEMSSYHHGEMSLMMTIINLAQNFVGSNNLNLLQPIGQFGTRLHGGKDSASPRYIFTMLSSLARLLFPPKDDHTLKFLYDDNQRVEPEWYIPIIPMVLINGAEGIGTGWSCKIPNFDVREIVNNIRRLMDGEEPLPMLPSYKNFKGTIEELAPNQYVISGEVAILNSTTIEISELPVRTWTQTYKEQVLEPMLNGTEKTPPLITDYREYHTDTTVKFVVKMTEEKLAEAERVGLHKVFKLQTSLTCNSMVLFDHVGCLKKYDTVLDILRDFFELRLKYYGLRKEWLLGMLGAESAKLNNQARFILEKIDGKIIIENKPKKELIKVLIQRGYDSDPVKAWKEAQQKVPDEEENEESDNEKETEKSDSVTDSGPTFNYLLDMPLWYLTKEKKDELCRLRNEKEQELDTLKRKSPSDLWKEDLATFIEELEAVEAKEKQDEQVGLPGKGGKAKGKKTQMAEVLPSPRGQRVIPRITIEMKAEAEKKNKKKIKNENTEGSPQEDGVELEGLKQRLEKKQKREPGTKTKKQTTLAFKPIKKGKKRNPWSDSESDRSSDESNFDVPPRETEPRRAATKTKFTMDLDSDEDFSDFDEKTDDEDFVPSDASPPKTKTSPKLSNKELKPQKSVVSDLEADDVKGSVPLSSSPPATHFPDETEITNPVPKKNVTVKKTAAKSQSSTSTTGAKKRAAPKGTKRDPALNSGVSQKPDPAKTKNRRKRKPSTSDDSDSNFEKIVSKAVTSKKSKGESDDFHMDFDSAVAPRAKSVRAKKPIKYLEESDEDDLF
# Escherichia coli [10] = test: Antibacterial activity against tolC deficient Escherichia coli 7623; format: functional
# DNA gyrase = DNA gyrase (Escherichia coli, UniProt P0AES4+P0AES6); test: Inhibition of Escherichia coli his-tagged DNA gyrase supercoiling activity using pBR322 DNA in presence of ATP incubated for 1 hr by H19 dye based high throughput DNA gyrase assay; format: protein-complex assay
smiles,measurement,setting,value
NC[C@H](Oc1noc2ccc(-c3ccccc3Cl)cc12)c1ccccc1,MIC,Pseudomonas aeruginosa,≥ 128 mg/L
same,CC50 at 72 h,[1]; l5178y,10 mg/L
same,IC50,[2],90 µM
same,MIC,Escherichia coli [3],8 to 16 mg/L
same,inhibition,[4],Active
same,MIC,Klebsiella pneumoniae,≥ 128 mg/L
same,MIC,Escherichia coli [5],≤ 0.125 mg/L
same,IC50,[6],22 µM
same,inhibition,Escherichia coli [7],Active
same,MIC,Acinetobacter baumannii,8 mg/L
same,MIC,Escherichia coli [8],2 mg/L
same,IC50,[9],210 µM
same,MIC,Escherichia coli [10],≤ 0.125 mg/L
same,IC50,DNA gyrase,0.16 µM
Cn1nc(O[C@@H](CN)c2ccccc2)c2cc(-c3ccccc3Cl)ccc21,MIC,Escherichia coli [3],> 128 mg/L
same,MIC,Klebsiella pneumoniae,> 128 mg/L
same,MIC,Escherichia coli [5],2 mg/L
same,MIC,Acinetobacter baumannii,64 mg/L
same,MIC,Escherichia coli [8],2 mg/L
same,MIC,Escherichia coli [10],2 mg/L
same,IC50,DNA gyrase,5 µM
N=C(N)NC[C@H](Oc1noc2ccc(-c3ccccc3Cl)cc12)c1ccccc1,MIC,Pseudomonas aeruginosa,16 mg/L
same,CC50 at 72 h,[1]; l5178y,11 mg/L
same,MIC,Escherichia coli [3],8 mg/L
same,MIC,Klebsiella pneumoniae,16 mg/L
same,MIC,Escherichia coli [5],0.25 mg/L
same,MIC,Acinetobacter baumannii,4 mg/L
same,MIC,Escherichia coli [8],0.5 mg/L
same,MIC,Escherichia coli [10],0.25 mg/L
same,IC50,DNA gyrase,0.16 µM
NCC(Oc1noc2ccc(-c3ccccc3Cl)cc12)c1ccccn1 (configuration not stated),CC50 at 72 h,[1]; L5178Y cells (TK +/-),3 mg/L
same,MIC,Escherichia coli [3],64 mg/L
same,MIC,Escherichia coli [5],0.25 mg/L
same,MIC,Acinetobacter baumannii,32 mg/L
same,MIC,Escherichia coli [8],8 mg/L
same,MIC,Escherichia coli [10],0.25 mg/L
same,IC50,DNA gyrase,0.5 µM
Cn1nc(NC(CN)c2ccccc2)c2cc(-c3ccccc3Cl)ccc21 (configuration not stated),CC50 at 72 h,[1]; L5178Y cells (TK +/-),5 mg/L
same,MIC,Escherichia coli [3],> 128 mg/L
same,MIC,Klebsiella pneumoniae,> 128 mg/L
same,MIC,Escherichia coli [5],4 mg/L
same,MIC,Acinetobacter baumannii,128 mg/L
same,MIC,Escherichia coli [8],4 mg/L
same,MIC,Escherichia coli [10],4 mg/L
same,IC50,DNA gyrase,7.9 µM
NC[C@@H](c1ccccc1)n1cnc2c(-c3ccccc3Cl)csc2c1=O,CC50 at 72 h,[1]; L5178Y cells (TK +/-),16 mg/L
same,MIC,Escherichia coli [3],> 128 mg/L
same,MIC,Klebsiella pneumoniae,> 128 mg/L
same,MIC,Escherichia coli [5],2 mg/L
same,MIC,Acinetobacter baumannii,> 128 mg/L
same,MIC,Escherichia coli [8],16 mg/L
same,MIC,Escherichia coli [10],2 to 4 mg/L
same,IC50,DNA gyrase,2 µM
NC[C@H](Oc1n[nH]c2ccc(-c3ccccc3Cl)cc12)c1ccccc1,CC50 at 72 h,[1]; L5178Y cells (TK +/-),3 mg/L
same,MIC,Escherichia coli [3],32 mg/L
same,MIC,Klebsiella pneumoniae,32 mg/L
same,MIC,Escherichia coli [5],2 mg/L
same,MIC,Acinetobacter baumannii,32 mg/L
same,MIC,Escherichia coli [8],2 mg/L
same,MIC,Escherichia coli [10],2 mg/L
same,IC50,DNA gyrase,1.6 µM
NC[C@H](Oc1noc2ccc(-c3ccccc3Cl)nc12)c1ccccc1,CC50 at 72 h,[1]; l5178y,5 mg/L
same,MIC,Escherichia coli [3],> 128 mg/L
same,MIC,Escherichia coli [5],8 mg/L
same,IC50,[6],16 µM
same,MIC,Acinetobacter baumannii,> 128 mg/L
same,MIC,Escherichia coli [8],16 mg/L
same,MIC,Escherichia coli [10],4 mg/L
same,IC50,DNA gyrase,1.6 µM
NCC(Nc1n[nH]c2ccc(-c3ccccc3Cl)cc12)c1ccccc1 (configuration not stated),CC50 at 72 h,[1]; L5178Y cells (TK +/-),5 mg/L
same,MIC,Escherichia coli [3],128 mg/L
same,MIC,Klebsiella pneumoniae,64 mg/L
same,MIC,Escherichia coli [5],4 mg/L
same,MIC,Acinetobacter baumannii,64 mg/L
same,MIC,Escherichia coli [8],4 mg/L
same,MIC,Escherichia coli [10],4 mg/L
same,IC50,DNA gyrase,3.2 µM
NC[C@H](Nc1nccc2ccc(-c3ccccc3Cl)cc12)c1ccccc1,CC50 at 72 h,[1]; L5178Y cells (TK +/-),3 mg/L
same,MIC,Escherichia coli [3],64 mg/L
same,MIC,Klebsiella pneumoniae,32 mg/L
same,MIC,Escherichia coli [5],2 mg/L
same,MIC,Acinetobacter baumannii,32 mg/L
same,MIC,Escherichia coli [8],2 mg/L
same,MIC,Escherichia coli [10],2 mg/L
same,IC50,DNA gyrase,10 µM
NC[C@H](Oc1noc2ncc(-c3ccccc3Cl)cc12)c1ccccc1,CC50 at 72 h,[1]; L5178Y cells (TK +/-),20 mg/L
same,MIC,Escherichia coli [3],64 mg/L
same,MIC,Escherichia coli [5],1 mg/L
same,IC50,[6],24 µM
same,MIC,Acinetobacter baumannii,64 mg/L
same,MIC,Escherichia coli [8],16 mg/L
same,MIC,Escherichia coli [10],1 mg/L
same,IC50,DNA gyrase,0.5 µM
Cc1sc(-c2ccccc2Cl)cc1C(=O)N[C@@H](CN)c1ccccc1,CC50 at 72 h,[1]; l5178y,5 mg/L
same,MIC,Escherichia coli [3],8 mg/L
same,MIC,Klebsiella pneumoniae,32 mg/L
same,MIC,Escherichia coli [5],≤ 0.125 mg/L
same,IC50,[6],13 µM
same,MIC,Acinetobacter baumannii,4 mg/L
same,MIC,Escherichia coli [8],4 mg/L
same,MIC,Escherichia coli [10],≤ 0.125 mg/L
same,IC50,DNA gyrase,0.04 µM
